Drawing on publication PMC5118696, “Identification of inhibitors that dually target the new permeability pathway and dihydroorotate dehydrogenase in the blood stage of Plasmodium falciparum” (Scientific Reports, 2016), this text covers activity for 58 compounds.

In experiment [1] the test system is Hyp1-NLuc Plasmodium falciparum-infected erythrocytes (new permeability pathway, NPP). The experiment can be described thus: microbe, parasite or virus in culture. The conditions noted are these: Erythrocyte, 0.33 h, read-out: Mean RLU at 28 min (As % of DMSO control).
Experiment [2] has the same test system. Briefly: microbe, parasite or virus in culture. The note with it: Erythrocyte, 0.33 h, read-out: % of control remaining.

Each structure is given as a SMILES string. Read-outs that look alike come from different tables or passages of the source.

As for `Cc1cc(Nc2cccc(F)c2)nc(NCc2ccccc2)n1` [MMV006319], the activity at 2 µM in experiment [1] was found to be 102%; in experiment [2] it was 104%.
In the same order, the values of `O=C1c2ccccc2C2=Nc3ccccc3SC(c3cccc(F)c3)C12` (centres unmarked) [MMV006389] are 98.3% and 102%.
The matching figures for `COc1cc(OC)c(N(C)C(=O)c2cc3c(s2)-c2ccccc2S(=O)(=O)C3)cc1Cl` [MMV006427]: 105% and 104%.
With `Cc1cc(NC(=O)C2c3ccccc3C(=O)N(CC(C)C)C2c2cccs2)no1` (centres unmarked) [MMV006429], the activity at 2 µM in experiment [1] was determined as 99.6%; in experiment [2], 98.1%.
The matching figures for `CCCN(CCC)CC(O)COc1ccccc1C(=O)Nc1ccccc1` (centres unmarked) [MMV006455]: 105% and 104%.
In the same order, the values of `CCOC(=O)c1ccc2nc(-c3ccccc3)cc(O)c2c1` [MMV006457] are 104% and 93.7%.
The matching figures for `c1ccc2c(NCCc3c[nH]c4ccccc34)c3ccccc3nc2c1` [MMV006513]: 96.2% and 106%.
As to `CCOc1ccc2nc(C)cc(Nc3ccc(Br)cc3)c2c1` [MMV006522], the activity at 2 µM in experiment [1] stood at 102%; in experiment [2], 104%.
In the same order, the values of `CCN(CC)CCNc1ncnc2c1[nH]c1ccc(Br)cc12` [MMV006545] are 120% and 110%.
The matching figures for `Cc1cc(C)c2c(c1)OCN(Cc1ccccc1Cl)C2` [MMV006558]: 108% and 108%.
For `Clc1ccc2[nH]c3c(NCCCN4CCOCC4)ncnc3c2c1` [MMV006587], the activity at 2 µM is 116% in experiment [1] and 102% in experiment [2].
The matching figures for `CCOC(=O)C1=CN(C)C=C(C(=O)OCC)C1c1cc(Br)c(OCC)c(OC)c1` [MMV006656]: 105% and 102%.
For `CN(C)CCNc1cc(-c2ccccc2)nc2ccccc12` [MMV006704], the activity at 2 µM in experiment [1] was 90.8%; in experiment [2], 92%.
In the same order, the values of `Cc1cc(N2CCN(C3CCCC3)CC2)n2c(nc3ccccc32)c1C#N` [MMV006706] are 118% and 117%.
For `Cc1cc(=O)oc2c1ccc1oc(C(=O)c3ccccc3)c(C)c12` [MMV006753], the activity at 2 µM in experiment [1] is 103%; in experiment [2], 108%.
The matching figures for `CCOc1c(Br)cc(C2C(C(=O)OC)=CN(C)C=C2C(=O)OC)cc1OC` [MMV006764]: 80.4% and 85.8%.
Consider `COc1cc2cc(C(=O)Nc3ccccc3)c(N)nc2cc1OC` [MMV006767], for which the activity at 2 µM in experiment [1] and in experiment [2] was 119% throughout.
As to `CC(C)CCNCC(O)Cn1c2ccccc2c2ccccc21` (centres unmarked) [MMV006787], the values for the activity at 2 µM in experiment [1] and in experiment [2] were 97.5% and 98.6%, respectively.
The matching figures for `CCCCc1c(C)nc2c(OC)cccc2c1O` [MMV006820]: 106% and 105%.
Consider `COc1ccc(Nc2cc(C)nc(NCc3ccccc3)n2)cc1` [MMV006825], for which the activity at 2 µM in experiment [1] turned out to be 107%; in experiment [2], 110%.
In the same order, the values of `c1ccc2cc3c(Nc4ccc(N5CCOCC5)cc4)ccnc3cc2c1` [MMV006861] are 109% and 102%.
In the same order, the values of `CCOC(=O)c1cnc2ccc(Cl)cc2c1NCCCN(C)C` [MMV006882] are 106% and 110%.
In the same order, the values of `C=CCc1c(C)nc2ccccc2c1O` [MMV006913] are 116% and 115%.
As to `Cc1ccc(-c2cc3nc4c(c(O)n3n2)CCCC4)cc1` [MMV006937], the results for the activity at 2 µM in experiment [1] and in experiment [2] were 100% and 58.4%, respectively.
The matching figures for `O=C(Nc1ccc(-c2nc3cc(NC(=O)c4ccc(Cl)cc4)ccc3[nH]2)cc1)c1ccc(Cl)cc1` [MMV006962]: 101% and 99.7%.
The matching figures for `CCOc1ccc2nc(C)cc(Nc3ccc(N(C)C)cc3)c2c1` [MMV007020]: 102% and 102%.
In the same order, the values of `Cc1ccc2c(C)nc(Nc3nc(C)cc(-c4ccccc4)n3)nc2c1` [MMV007041] are 104% and 98.8%.
For the compound `CCOc1ccc(CN2CCN(CC(O)COc3ccc(OCC(O)CN4CCN(Cc5ccc(OCC)cc5)CC4)cc3)CC2)cc1` (centres unmarked) [MMV007092], the activity at 2 µM in experiment [1] was determined as 105%; in experiment [2] it was 98.2%.
In the same order, the values of `c1ccc(C2=Nc3ccccc3N=C(c3ccccc3)c3ccccc32)cc1` [MMV007113] are 103% and 111%.
In the same order, the values of `CCOC(=O)c1cnc2ccc(CC)cc2c1O` [MMV007116] are 103% and 85.3%.
`OC1=C2C(=Nc3ccccc3SC2c2ccc(Br)cc2)c2ccccc21` (centres unmarked) [MMV007127]: the activity at 2 µM in experiment [1] was 108%; in experiment [2], 114%.
As to `Cc1ccc(N2C3c4ccccc4N(S(=O)(=O)c4ccc(C)cc4)C2c2ccccc2N3S(=O)(=O)c2ccc(C)cc2)cc1` [MMV007160], the activity at 2 µM in experiment [1] and in experiment [2] was 103% throughout.
As for `Cc1cc(Nc2ccc(OCc3ccccc3)cc2)nc2cc(O)ccc12` [MMV007181], the results for the activity at 2 µM in experiment [1] and in experiment [2] were 105% and 108%, respectively.
The matching figures for `COc1ccccc1N1C(=N)SC(=Cc2ccc(OCc3ccccc3F)cc2)C1=O` [MMV007199]: 86.7% and 62.6%.
The matching figures for `COc1ccc(OC)c(C2C3=C(CC(C)(C)CC3=O)N(c3ccc(Cl)c(Cl)c3)C3=C2C(=O)CC(C)(C)C3)c1` [MMV007208]: 102% and 104%.
The matching figures for `Brc1ccc(Nc2nc3ccccc3nc2Nc2ccc(Br)cc2)cc1` [MMV007224]: 95.5% and 104%.
Turning to `Cc1cccc(N2C(=O)C3C(C2=O)C2(c4ccccc4)C(=O)C3(c3ccccc3)C(c3ccc4c(c3)OCO4)=C2c2ccc3c(c2)OCO3)c1` (centres unmarked) [MMV007228], the activity at 2 µM in experiment [1] came to 99.5%; in experiment [2], 107%.
`COc1cc(-c2nc(-c3ccc(Sc4ccccc4)cc3)c(-c3ccccc3)[nH]2)cc(OC)c1O` [MMV007273]: the activity at 2 µM in experiment [1] amounted to 97.2%; in experiment [2], 105%.
The matching figures for `Cc1ccc(F)cc1NC(=O)c1cc(Cl)ccc1Nc1ccccc1` [MMV007275]: 106% and 116%.
Take `CCOc1ccc(Nc2ccnc3cc(Cl)ccc23)cc1` [MMV007285]: the values for the activity at 2 µM in experiment [1] and in experiment [2] were 107% and 102%, respectively.
In the same order, the values of `Clc1ccc2c(N3CCCC3)ccnc2c1` [MMV007363] are 114% and 115%.
In the same order, the values of `CCc1ccc(Nc2cc(C)nc3nc(C)nn23)cc1` [MMV007374] are 113% and 114%.
The matching figures for `COc1ccc(-c2nc3cc(Cc4ccc5[nH]c(-c6ccc(OC)cc6)nc5c4)ccc3[nH]2)cc1` [MMV007384]: 82.1% and 45.6%.
Consider `Cc1ccccc1OCCSc1nc2ccc(NC(=O)c3cccs3)cc2s1` [MMV007396], for which the activity at 2 µM turned out to be 104% in experiment [1] and 111% in experiment [2].
Consider `O=C(NCc1ccco1)C1CCN(S(=O)(=O)c2ccc(Br)cc2)CC1` [MMV007430], for which the activity at 2 µM in experiment [1] worked out at 114%; in experiment [2], 112%.
The matching figures for `COc1cc2c3cc1Oc1c(OC)c(OC)cc4c1C(Cc1ccc(O)c(c1)Oc1ccc(cc1)CC3N(C)CC2)N(C)CC4` (centres unmarked) [MMV007474]: 104% and 103%.
As for `COc1ccc(CCNC(=O)c2cc(S(=O)(=O)N3CC(C)CC(C)C3)ccc2Sc2ccc(F)cc2)cc1OC` (centres unmarked) [MMV007557], the figures for the activity at 2 µM in experiment [1] and in experiment [2] were 102% and 106%, respectively.
The matching figures for `Cc1ccc(Cn2c(N3CCC(C(=O)NCc4cccs4)CC3)nc3ccccc32)cc1` [MMV007564]: 96.6% and 104%.
In the same order, the values of `O=C(Nc1ccc(C23CC4CC(CC(c5ccccc5)(C4)C2)C3)cc1)c1cccs1` [MMV007574] are 106% and 111%.
In the same order, the values of `Cc1ccccc1OCCSc1nc2ccc(NC(=O)c3ccccc3)cc2s1` [MMV007577] are 97.3% and 98.1%.
`COc1ccc(C(=O)C(CCC(CNC(C)(C)C)C(=O)c2ccc(OC)cc2)CNC(C)(C)C)cc1` (centres unmarked) [MMV007591]: the activity at 2 µM in experiment [1] amounted to 103%; in experiment [2], 102%.
The matching figures for `CC(=O)NCCc1nc2ccccc2n1Cc1ccc(C(C)C)cc1` [MMV007617]: 95.2% and 82.1%.
In the same order, the values of `Cc1ccc(C)c(-c2csc(Nc3ccc(C)c(C)c3)n2)c1` [MMV007654] are 94.4% and 91.8%.
The matching figures for `CCCCCCOC(=O)C1=C(C)NC(=O)NC1c1ccccc1F` (centres unmarked) [MMV007686]: 107% and 105%.
In the case of `COc1ccc(C(C)=O)cc1N1C(=O)C2C(C1=O)C1(c3ccccc3)C(=O)C2(c2ccccc2)C(c2ccc(C)cc2)=C1c1ccc(C)cc1` (centres unmarked) [MMV007695], the activity at 2 µM in experiment [1] came out at 98.9%; in experiment [2], 98.4%.
In the same order, the values of `CCCCc1c(CCC)c(=N)c2ccccc2n1C` [MMV007764] are 110% and 111%.
In the same order, the values of `CCOc1ccccc1NC(=O)CN1CCN(C(=O)c2ccco2)CC1` [MMV007791] are 106% and 108%.
As for `COc1nc(Nc2ccc(C(C)C)cc2)nc(OC)n1` [MMV007808], the activity at 2 µM in experiment [1] and in experiment [2] was 110% in each case.
